Reference: patent US20230000869A1, “NOVEL ALK2 INHIBITORS AND METHODS FOR INHIBITING BMP SIGNALING” (The Brigham and Women's Hospital, Inc., priority 2017, published 2023)
pIC50: −log10 of the molar value.

Key:
[1] = target: T1, ALK5 (Homo sapiens, UniProt P36897); experiment: TR-FRET enzymatic assay, ALK5 kinase, 1536-well; format: biochemical; conditions: for IC50: 10 nM ALK, Ulight topo II substrate 50 nM, ATP 10 uM (Table 1); for ALK5 Span: span of the concentration-response curve
T1 construct: purchased Life technology (Fredrick, Md.) and/or CARNA BIOSCIENCES Inc. (Kobe, Japan)
T1 sequence (P36897 34-503): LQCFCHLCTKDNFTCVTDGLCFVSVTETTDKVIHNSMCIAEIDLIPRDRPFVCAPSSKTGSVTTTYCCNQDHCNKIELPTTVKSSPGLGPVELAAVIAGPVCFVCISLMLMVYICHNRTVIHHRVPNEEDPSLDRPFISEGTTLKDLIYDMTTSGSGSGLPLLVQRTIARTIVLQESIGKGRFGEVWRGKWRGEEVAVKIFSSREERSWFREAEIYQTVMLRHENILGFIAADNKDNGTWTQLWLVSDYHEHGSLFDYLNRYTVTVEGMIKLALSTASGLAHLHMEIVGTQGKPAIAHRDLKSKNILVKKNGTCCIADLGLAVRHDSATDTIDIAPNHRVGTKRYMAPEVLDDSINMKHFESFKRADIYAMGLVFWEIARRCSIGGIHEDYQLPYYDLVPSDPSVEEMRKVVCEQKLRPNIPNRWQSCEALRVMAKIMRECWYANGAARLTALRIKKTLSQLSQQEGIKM
Text: (§1) We have developed six ALK kinase enzyme assays for determination of compound activities on ALK1, ALK2, ALK3, ALK4, ALK5 and ALK6. For the assay development, we had tested a number of substrates and assay conditions that led to the final optimized assay protocols with good assay windows with signal to basal (S/B) ratios above 20 fold for all six ALK assays (FIG. 1). In our knowledge, these ALK kinase assays have not been reported elsewhere.
(§2) ALK1 and ALK2-ALK6 were obtained from Life technology (Fredrick, Md.) and CARNA BIOSCIENCES Inc. (Kobe, Japan). Ulight-DNA Topoisomerase 2 alpha (Thr-1342) peptide and Europium anti-phospho-DNA Topoisomerase 2 alpha (Thr-1342) antibody was from Perkin Elmer Inc. The kinase buffer was composed of 50 mM HEPES pH7.0, 10 mM MgCl2, 3 mM MnCl2, 0.005% Tween-20 and 2 mM DTT. The compound plates and the white solid MB assay plates were purchased from Greiner Bio-one (Monroe, N.C.).
(§3) The binding of Eu-anti-phospho-peptide antibody to the phosphorylated Ulight peptide substrate bring both Eu donor and Ulight acceptor dye into close proximity. Upon excitation at 320-340 nm, the emission energy from Eu donor is transferred to Ulight acceptor dye that will generate light at 665 nm. The intensity light emission is proportional to the level of the peptide phosphorylation by ALKs. The assay was optimized and performed in 1536 plate (Table 1). Briefly, the ALKs enzymatic assay was initiated by dispense 2.5 ul enzyme with a final concentration at 10 nM prepared in 1× kinase reaction buffer. The assay plate was then added with compounds with the Pintool station (23 nl/well compound dilutions in DMSO solution) that was followed by incubation at room temperature for 10 minutes. Then 2.5 ul/well substrate was added in which 50 nM peptide substrate mixed with 10 uM, 100 uM or 1 mM ATP (final concentration). The assay plate was incubated at room temperature for 60 minutes and the kinase reaction was stopped by addition of 5 ul/well of 4 nM Eu-anti-phospho-peptide antibody with 12 mM EDTA prepared in 1× detection buffer. The assay plate was measured in an EnVision plate reader (Perkin Elmer) in the TR-FRET detection mode (excitation at 340 nm and emission at 665 nm).

[2] = target: T2, ALK3 (Homo sapiens, UniProt P36894); experiment: TR-FRET enzymatic assay, ALK3 kinase, 1536-well; format: biochemical; conditions: for IC50: 10 nM ALK, Ulight topo II substrate 50 nM, ATP 10 uM (Table 1); for ALK3 Span: span of the concentration-response curve
T2 construct: purchased Life technology (Fredrick, Md.) and/or CARNA BIOSCIENCES Inc. (Kobe, Japan)
T2 sequence (P36894 24-532): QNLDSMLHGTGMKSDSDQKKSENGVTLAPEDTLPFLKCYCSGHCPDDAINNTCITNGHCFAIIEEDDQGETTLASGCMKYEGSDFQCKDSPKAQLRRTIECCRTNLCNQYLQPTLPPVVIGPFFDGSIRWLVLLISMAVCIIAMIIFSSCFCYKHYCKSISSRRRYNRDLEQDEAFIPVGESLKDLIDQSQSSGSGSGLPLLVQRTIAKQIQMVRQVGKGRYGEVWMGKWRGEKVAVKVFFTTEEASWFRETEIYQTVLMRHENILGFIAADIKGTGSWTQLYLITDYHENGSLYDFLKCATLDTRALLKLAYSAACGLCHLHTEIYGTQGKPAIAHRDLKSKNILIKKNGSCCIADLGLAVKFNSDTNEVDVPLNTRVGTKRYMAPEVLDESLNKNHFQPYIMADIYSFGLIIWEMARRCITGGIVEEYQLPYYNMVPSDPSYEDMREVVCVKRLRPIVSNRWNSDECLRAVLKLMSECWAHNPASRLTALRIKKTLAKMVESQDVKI
Text: as §1, §2, §3

[3] = target: T3, ALK1 (Homo sapiens, UniProt P37023); experiment: TR-FRET enzymatic assay, ALK1 kinase, 1536-well; format: biochemical; conditions: for IC50 / ALK1 Span: TR-FRET; for IC50: 10 nM ALK, Ulight topo II substrate 50 nM, ATP 10 uM (Table 1); for ALK1 Span: span of the concentration-response curve
T3 construct: purchased Life technology (Fredrick, Md.) and/or CARNA BIOSCIENCES Inc. (Kobe, Japan)
T3 sequence (P37023 22-503): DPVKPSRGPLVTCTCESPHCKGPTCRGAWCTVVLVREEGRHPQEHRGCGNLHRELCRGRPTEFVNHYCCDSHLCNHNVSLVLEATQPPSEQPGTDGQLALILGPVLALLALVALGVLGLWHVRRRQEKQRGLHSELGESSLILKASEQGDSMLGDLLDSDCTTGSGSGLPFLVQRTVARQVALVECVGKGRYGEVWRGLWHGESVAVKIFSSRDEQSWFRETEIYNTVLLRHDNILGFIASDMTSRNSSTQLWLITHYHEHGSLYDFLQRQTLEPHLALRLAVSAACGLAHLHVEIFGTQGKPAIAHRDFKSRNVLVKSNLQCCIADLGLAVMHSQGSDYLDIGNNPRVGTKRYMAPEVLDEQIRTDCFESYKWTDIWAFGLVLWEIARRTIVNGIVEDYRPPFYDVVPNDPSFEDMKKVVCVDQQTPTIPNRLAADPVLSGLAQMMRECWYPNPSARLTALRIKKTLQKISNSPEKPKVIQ
Text: as §1, §2, §3

[4] = target: T4, BMPR2 (Homo sapiens, UniProt Q13873); experiment: LanthaScreen Eu kinase binding assay, BMP type II receptor BMPR2; conditions: 10-point titration from 10 μM, 3-fold serial dilution, Life Technologies
T4 sequence (Q13873 27-1038): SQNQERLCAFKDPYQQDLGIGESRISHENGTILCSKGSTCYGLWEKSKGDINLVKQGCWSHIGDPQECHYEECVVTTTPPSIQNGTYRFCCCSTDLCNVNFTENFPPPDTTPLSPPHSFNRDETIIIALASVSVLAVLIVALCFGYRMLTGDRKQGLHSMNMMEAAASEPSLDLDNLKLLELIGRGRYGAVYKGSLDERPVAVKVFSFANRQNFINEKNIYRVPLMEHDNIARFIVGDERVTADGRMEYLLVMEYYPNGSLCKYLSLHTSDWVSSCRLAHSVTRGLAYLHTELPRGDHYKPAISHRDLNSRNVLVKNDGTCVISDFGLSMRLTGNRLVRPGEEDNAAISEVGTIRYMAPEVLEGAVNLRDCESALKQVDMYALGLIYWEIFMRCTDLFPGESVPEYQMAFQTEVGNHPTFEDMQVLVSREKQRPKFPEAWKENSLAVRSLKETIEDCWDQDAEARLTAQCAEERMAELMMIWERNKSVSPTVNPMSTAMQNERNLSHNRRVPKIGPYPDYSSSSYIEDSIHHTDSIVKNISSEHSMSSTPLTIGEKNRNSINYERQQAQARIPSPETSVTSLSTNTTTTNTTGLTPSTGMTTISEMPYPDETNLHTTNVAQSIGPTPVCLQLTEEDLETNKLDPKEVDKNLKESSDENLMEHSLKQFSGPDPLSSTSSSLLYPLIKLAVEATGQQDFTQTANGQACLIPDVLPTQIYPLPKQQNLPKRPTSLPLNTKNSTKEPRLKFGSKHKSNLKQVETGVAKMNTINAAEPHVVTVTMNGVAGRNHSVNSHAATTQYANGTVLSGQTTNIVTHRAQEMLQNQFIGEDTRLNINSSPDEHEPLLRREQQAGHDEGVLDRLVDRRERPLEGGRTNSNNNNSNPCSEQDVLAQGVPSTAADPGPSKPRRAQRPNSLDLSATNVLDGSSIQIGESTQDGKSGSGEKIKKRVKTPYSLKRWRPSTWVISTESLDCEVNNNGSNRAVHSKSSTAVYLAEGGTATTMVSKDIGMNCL
Description: Kinase Profiling BMP Type II Receptor Experimental Procedure (Life Technologies, 5225 Vernona Road, Madison, Wis. 53744)
The measurement of each compound's half maximal inhibitory concentration (IC50) for BMP type II receptors (ACVR2A, ACVR2B, BMPR2 and TGFbR2) was carried out at Life Technologies by using its 10-point titration (starting concentration: 10 μM with 3-fold serial dilution) LanthaScreen™ biochemical kinase assay protocol. For the detailed description of LanthaScreen™ Eu kinase binding assay condition, please see: https://www.thermofisher.com/us/en/home/industrial/pharma-biopharma/drug-discovery-development/target-and-lead-identification-and-validation/kinasebiology/kinase-activity-assays/lanthascreentm-eu-kinas e-binding-assay/lanthascreen-eu-kinase-binding-assay-validation-table.html.

In the case of `Cc1cc(-c2cnn3cc(N4CCC(N5CCN(C)CC5)CC4)cnc23)c2ccccc2n1` [Compound 8], the IC50 [1] was 2470 nM, the “ALK5 Span” value [1] was 100.3 and the IC50 [2] was 1240 nM. For the same molecule, the “ALK3 Span” value [2] was 97.0, the IC50 [3] was 325 nM and the “ALK1 Span” value [3] was 89.1. For the same molecule, the pIC50 [4] was less than 5.00.

For `Cc1cc(-c2cnn3cc(N4CCC(N5CCOCC5)CC4)cnc23)c2ccccc2n1` [Compound 11], the IC50 [1] was 2080 nM, the “ALK5 Span” value [1] was 102.1 and the IC50 [2] was 1280 nM. For the same molecule, the “ALK3 Span” value [2] was roughly 115.7, the IC50 [3] was 269 nM and the “ALK1 Span” value [3] was 91.4.

For `COc1cc2c(-c3cnn4cc(N5CCC(N6CCN(C)CC6)CC5)cnc34)ccnc2cc1F` [Compound 15, 7-fluoro-6-methoxy-4-(6-(4-(4-methylpiperazin-1-yl)piperidin-1-yl)pyrazolo[1,5-a]pyrimidin-3-yl)quinoline], the IC50 [1] was 8920 nM, the “ALK5 Span” value [1] was 96 and the IC50 [2] was 2820 nM. For the same molecule, the “ALK3 Span” value [2] was 96.93, the IC50 [3] was 1520 nM and the “ALK1 Span” value [3] was 92.3.

`Cc1cc(-c2cnn3cc(N4CCC(N5CCNCC5)CC4)cnc23)c2ccccc2n1` [Compound 34] was tested, and the IC50 [1] was 4680 nM, the “ALK5 Span” value [1] was 105.678 and the IC50 [2] was 1870 nM. The “ALK3 Span” value [2] was 104.4, the IC50 [3] was 671 nM and the “ALK1 Span” value [3] was 93.42.

With `c1ccc2c(-c3cnn4cc(-c5ccc(N6CCNCC6)cc5)cnc34)ccnc2c1` [TRND00262637-13] the “activity in ALK1 in the presence of 10, 100, or 1,000 uM ATP” value ([3]; FIG. 3, ATP 10 uM versus 100 uM or 1 mM) was “activity reduced in the higher ATP concentrations” and the pIC50 [4] was less than 5.00.
